From PMC6458391, “Deep eutectic solvent for an expeditious sono-synthesis of novel series of bis-quinazolin-4-one derivatives as potential anti-cancer agents” (Royal Society Open Science, 2019)
Where two headings read alike, the source gives them in different places.

Legend:
[1] = test system: A549 (lung cancer) cell line; assay: MTT cytotoxicity assay, A549; settings: for inhibition: 48 h, triplicate, mean ± s.e.m.; for IC50: read-out: IC50 A549, MTT, 48 h drug treatment, A549
[2] = read-out: Cells viability (%) A549, 10 μM, 10 μM
[3] = read-out: Cells viability (%) A549, 30 μM, 30 μM

SMILES	melting point [°C]	inhibition [1, 2] [%]	inhibition [1, 3] [%]	IC50 [1] [µM]	potency against A549 relative to sorafenib ([1]; from IC50 values)
Cc1nc2ccccc2c(=O)n1[C@H]1CC[C@H](n2c(C)nc3ccccc3c2=O)CC1 [Compound 3a, 3,3′-((1R,4R)-Cyclohexane-1,4-diyl)bis(2-methylquinazolin-4(3H)-one)]	273 to 275	60.2 ± 1.56	97.2 ± 0.41	8.15	
Cc1nc2ccccc2c(=O)n1-c1cccc(-n2c(C)nc3ccccc3c2=O)c1 [Compound 11, 3,3′-(1,3-Phenylene)bis(2-methylquinazolin-4(3H)-one)]	236 to 238	79.8 ± 1.05	83.2 ± 1.02	5.94	
CNC(=O)c1cc(Oc2ccc(NC(=O)Nc3ccc(Cl)c(C(F)(F)F)c3)cc2)ccn1 [Sorafenib, sorafenib, reference compound]		89.8 ± 1.14	91.2 ± 1.44	5.2	
Cc1nc2ccccc2c(=O)n1CCn1c(C)nc2ccccc2c1=O [Compound 5a, 3,3′-(Ethane-1,2-diyl)bis(2-methylquinazolin-4(3H)-one)]	190 to 192	32.4 ± 2.91	88.7 ± 1.83	12.3	
Cc1ccc2nc(C)n([C@H]3CC[C@H](n4c(C)nc5ccc(C)cc5c4=O)CC3)c(=O)c2c1 [Compound 3b, 3,3′-((1R,4R)-Cyclohexane-1,4-diyl)bis(2,6-dimethylquinazolin-4(3H)-one)]	280 to 281	39.3 ± 2.76	90.12 ± 0.25	15.7	
Cc1nc2ccccc2c(=O)n1-c1cccc(N)c1	121 to 123				
Cc1nc2ccc(Cl)cc2c(=O)n1CCn1c(C)nc2ccc(Cl)cc2c1=O [Compound 5c, 3,3′-(Ethane-1,2-diyl)bis(6-chloro-2-methylquinazolin-4(3H)-one)]	244 to 246	61.9 ± 2.34	82.1 ± 1.93	7.98	
Cc1nc2ccccc2c(=O)n1-c1ccccc1-n1c(C)nc2ccccc2c1=O [Compound 9, 3,3′-(1,2-Phenylene)bis(2-methylquinazolin-4(3H)-one)]	187 to 190				
Cc1nc2ccc([N+](=O)[O-])cc2c(=O)n1-c1ccc(-n2c(C)nc3ccc([N+](=O)[O-])cc3c2=O)cc1 [Compound 6e, 3,3′-(1,4-Phenylene)bis(2-methyl-6-nitroquinazolin-4(3H)-one)]	307 to 310	95.4 ± 0.24	97.6 ± 0.21	3.43	
Cc1nc2ccc(F)cc2c(=O)n1CCn1c(C)nc2ccc(F)cc2c1=O [Compound 5d, 3,3′-(Ethane-1,2-diyl)bis(6-fluoro-2-methylquinazolin-4(3H)-one)]	219 to 221	54.49 ± 0.27	90 ± 43	7.95	
Cc1nc2ccc(Cl)cc2c(=O)n1[C@H]1CC[C@H](n2c(C)nc3ccc(Cl)cc3c2=O)CC1 [Compound 3c, 3,3′-((1R,4R)-Cyclohexane-1,4-diyl)bis(6-chloro-2-methylquinazolin-4(3H)-one)]	311 to 313	61.1 ± 1.82	96.98 ± 0.4	8.14	
Cc1nc2ccc(F)cc2c(=O)n1Cc1ccc(Cn2c(C)nc3ccc(F)cc3c2=O)cc1 [Compound 4d, 3,3′-(1,4-Phenylenebis(methylene))bis(6-fluoro-2-methylquinazolin-4(3H)-one)]	217 to 219	94.29 ± 0.39	96.09 ± 0.244	5.55	
Cc1nc2ccc(Cl)cc2c(=O)n1Cc1ccc(Cn2c(C)nc3ccc(Cl)cc3c2=O)cc1 [Compound 4c, 3,3′-(1,4-Phenylenebis(methylene))bis(6-chloro-2-methylquinazolin-4(3H)-one)]	327 to 330	79.5 ± 2.61	81.8 ± 0.87	6.07	
Cc1ccc2nc(C)n(Cc3ccc(Cn4c(C)nc5ccc(C)cc5c4=O)cc3)c(=O)c2c1 [Compound 4b, 3,3′-(1,4-Phenylenebis(methylene))bis(2,6-dimethylquinazolin-4(3H)-one)]	285 to 287	76 ± 2.21	78.7 ± 1.76	6.79	
Cc1nc2ccc([N+](=O)[O-])cc2c(=O)n1[C@H]1CC[C@H](n2c(C)nc3ccc([N+](=O)[O-])cc3c2=O)CC1 [Compound 3e, 3,3′-((1R,4R)-Cyclohexane-1,4-diyl)bis(2-methyl-6-nitroquinazolin-4(3H)-one)]	301 to 304	77.1 ± 1.78	82.8 ± 1.64	5.34	
Cc1nc2ccc(F)cc2c(=O)n1[C@H]1CC[C@H](n2c(C)nc3ccc(F)cc3c2=O)CC1 [Compound 3d, 3,3'-((1R,4R)-Cyclohexane-1,4-diyl)bis(6-fluoro-2-methylquinazolin-4(3H)-one)]	262 to 264	67.49 ± 0.27	90 ± 43	8.11	
Cc1nc2ccc([N+](=O)[O-])cc2c(=O)n1-c1ccc(S(=O)(=O)c2ccc(-n3c(C)nc4ccc([N+](=O)[O-])cc4c3=O)cc2)cc1 [Compound 7e, 3,3′-(Sulfonylbis(4,1-phenylene))bis(2-methyl-6-nitroquinazolin-4(3H)-one)]	316 to 319	95.99 ± 0.14	96.76 ± 0.87	2.75	approximately twice as potent as sorafenib
Cc1nc2ccc([N+](=O)[O-])cc2c(=O)n1CCn1c(C)nc2ccc([N+](=O)[O-])cc2c1=O [Compound 5e, 3,3′-(Ethane-1,2-diyl)bis(2-methyl-6-nitroquinazolin-4(3H)-one)]	278 to 279	91.54 ± 0.56	97.83 ± 0.24	5.05	
Cc1nc2ccccc2c(=O)n1Cc1ccc(Cn2c(C)nc3ccccc3c2=O)cc1 [Compound 4a, 3,3′-(1,4-Phenylenebis(methylene))bis(2-methylquinazolin-4(3H)-one)]	277 to 279	60.4 ± 3.31	62.9 ± 1.45	6.11	
Cc1nc2ccc([N+](=O)[O-])cc2c(=O)n1Cc1ccc(Cn2c(C)nc3ccc([N+](=O)[O-])cc3c2=O)cc1 [Compound 4e, 3,3′-(1,4-Phenylenebis(methylene))bis(2-methyl-6-nitroquinazolin-4(3H)-one)]	350 to 353	80.2 ± 2.1	87 ± 1.45	2.98	
Cc1ccc2nc(C)n(CCn3c(C)nc4ccc(C)cc4c3=O)c(=O)c2c1 [Compound 5b, 3,3′-(Ethane-1,2-diyl)bis(2,6-dimethylquinazolin-4(3H)-one)]	211 to 212	40 ± 2.11	89.7 ± 1.76	15.7	
Cc1nc2ccccc2c(=O)n1-c1ccccc1N	109 to 111				

Continued, in another order:

melting point [°C]	SMILES	inhibition [1, 2] [%]	inhibition [1, 3] [%]	IC50 [1] [µM]	potency against A549 relative to sorafenib ([1]; from IC50 values)
332 to 335	Cc1nc2ccc(Cl)cc2c(=O)n1-c1ccc(S(=O)(=O)c2ccc(-n3c(C)nc4ccc(Cl)cc4c3=O)cc2)cc1 [Compound 7c, 3,3′-(Sulfonylbis(4,1-phenylene))bis(6-chloro-2-methylquinazolin-4(3H)-one)]	72.3 ± 0.78	88.43 ± 0.19	4.21	
294 to 297	Cc1nc2ccccc2c(=O)n1-c1ccc(S(=O)(=O)c2ccc(-n3c(C)nc4ccccc4c3=O)cc2)cc1 [Compound 7a, 3,3′-(Sulfonylbis(4,1-phenylene))bis(2-methylquinazolin-4(3H)-one)]	82.7 ± 1.63	82.1 ± 0.5	4.58	
263 to 265	Cc1ccc2nc(C)n(-c3ccc(-n4c(C)nc5ccc(C)cc5c4=O)cc3)c(=O)c2c1 [Compound 6b, 3,3′-(1,4-Phenylene)bis(2,6-dimethylquinazolin-4(3H)-one)]	59.2 ± 1.53	95.12 ± 0.22	8.13	
287 to 290	Cc1nc2ccc(Cl)cc2c(=O)n1-c1ccc(-n2c(C)nc3ccc(Cl)cc3c2=O)cc1 [Compound 6c, 3,3′-(1,4-Phenylene)bis(6-chloro-2-methylquinazolin-4(3H)-one)]	91.98 ± 0.49	98.02 ± 0.21	5.15	
269 to 272	Cc1nc2ccc(F)cc2c(=O)n1-c1ccc(-n2c(C)nc3ccc(F)cc3c2=O)cc1 [Compound 6d, 3,3′-(1,4-Phenylene)bis(6-fluoro-2-methylquinazolin-4(3H)-one)]	82.7 ± 1.67	81.78 ± 0.45	4.54	
310 to 313	Cc1ccc2nc(C)n(-c3ccc(S(=O)(=O)c4ccc(-n5c(C)nc6ccc(C)cc6c5=O)cc4)cc3)c(=O)c2c1 [Compound 7b, 3,3′-(Sulfonylbis(4,1-phenylene))bis(2,6-dimethylquinazolin-4(3H)-one)]	53.1 ± 2.2	86.8 ± 1.19	5.77	
301 to 303	Cc1nc2ccc(F)cc2c(=O)n1-c1ccc(S(=O)(=O)c2ccc(-n3c(C)nc4ccc(F)cc4c3=O)cc2)cc1 [Compound 7d, 3,3′-(Sulfonylbis(4,1-phenylene))bis(6-fluoro-2-methylquinazolin-4(3H)-one)]	96.46 ± 0.65	96.68 ± 0.17	3.45	
178 to 180	Cc1nc2ccccc2c(=O)n1-c1ccc(-n2c(C)nc3ccccc3c2=O)cc1 [Compound 6a, 3,3′-(1,4-Phenylene)bis(2-methylquinazolin-4(3H)-one)]	54.49 ± 0.27	90 ± 43	8.41	
